Measured values: PubChem BioAssay AID463223 (The Scripps Research Institute Molecular Screening Center, 2010)
The source made the active and inactive calls. The rule behind the calls is not given here.

Target: Serine/threonine-protein phosphatase 5 (Homo sapiens) (UniProt P53041)
Assay: blocking PP5 removal of histone phosphate – biochemical, radiolabel, single concentration, PP5 inhibitor project, late-stage follow-up (AID 463223)
Details: purified PP5c, 33P-phosphohistone radiolabel assay, scintillation counting, 10 min; at 10 µM; active compounds read high

Sequence of Serine/threonine-protein phosphatase 5 (Homo sapiens) (P53041 whole entry, looked up): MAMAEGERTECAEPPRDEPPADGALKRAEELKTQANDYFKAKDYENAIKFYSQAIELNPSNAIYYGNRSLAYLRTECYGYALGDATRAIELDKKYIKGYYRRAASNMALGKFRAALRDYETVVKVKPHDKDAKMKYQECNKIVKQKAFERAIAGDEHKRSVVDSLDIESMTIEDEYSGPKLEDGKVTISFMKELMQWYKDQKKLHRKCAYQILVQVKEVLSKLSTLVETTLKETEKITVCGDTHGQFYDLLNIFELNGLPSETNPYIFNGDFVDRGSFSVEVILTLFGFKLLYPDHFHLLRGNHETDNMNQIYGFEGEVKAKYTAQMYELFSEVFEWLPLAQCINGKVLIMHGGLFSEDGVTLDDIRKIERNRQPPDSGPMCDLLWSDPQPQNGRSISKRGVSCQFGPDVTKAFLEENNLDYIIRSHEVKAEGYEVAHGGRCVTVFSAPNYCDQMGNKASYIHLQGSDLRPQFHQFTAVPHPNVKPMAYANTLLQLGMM

Row | SMILES | inhibition
1 | Oc1cccc(/C=N/Nc2cc(N3CCCC3)nc(N3CCCC3)n2)c1 | 1.73% (inactive)
2 | Nc1cc2nsnc2cc1Br | 1.86% (inactive)
3 | O=C1Nc2ccccc2N2CCCC12 (centres undefined) | -0.58% (inactive)
4 | O=C(Nc1nc(-c2ccccn2)cs1)C1CC(=O)N(c2ccc3c(c2)OCCO3)C1 (centres undefined) | -3.02% (inactive)
5 | CCOC(=O)c1cnc(-n2cc(C)cn2)nc1NCc1ccc2c(c1)OCO2 | -0.82% (inactive)
6 | COc1cnc(-c2ccccn2)nc1Sc1ccc(C)cc1 | -1.26% (inactive)
7 | COc1ccc(Sc2nc(-c3ccccn3)ncc2OC)cc1 | 1.12% (inactive)
8 | Cc1ccc(C(=O)NNc2cc(N3CCCC3)nc(N3CCCC3)n2)cc1 | 0.83% (inactive)
9 | O=C(O)c1cc(-c2ccc(Cl)cc2)n(-c2cccc(Cl)c2)n1 | 2.43% (inactive)
10 | CCOC(=O)C1=C(C)OC2(O)c3ccccc3C(=O)C12O (centres undefined) | -1.47% (inactive)
11 | CCn1c2ccccc2c2cc(NC(=O)COC(=O)c3ccc(NC(=O)CC#N)cc3)ccc21 | -0.66% (inactive)
12 | COc1ccc2c(Cl)c(C(=O)N/N=C/c3ccc4c(c3)OCO4)sc2c1 | -0.4% (inactive)
13 | CCCCn1c(NC(=O)c2ccco2)c(C(=O)OCC)c2nc3ccccc3nc21 | 2.8% (inactive)
14 | O=C(O)C1C2CCC(O2)C1C(=O)NC1CCCCC1 (centres undefined) | 45.9%
15 | Cc1nnc(NC(=O)C2C3C=CC(O3)C2C(=O)O)s1 (centres undefined) | 16%
16 | CC(=O)C(C(C)=O)C1(O)C(=O)c2ccccc2C1=O | 2.52% (inactive)
17 | COc1ccc(NC(=O)C2C3CCC(O3)C2C(=O)O)c(OC)c1 (centres undefined) | 49.1%
18 | Cc1[nH]n(-c2ccccc2)c(=O)c1C(c1ccc([N+](=O)[O-])cc1)c1c(C)[nH]n(-c2ccccc2)c1=O | 3.51% (inactive)
19 | N#Cc1c(N2CCCC(O)C2)nc(N)c2c(N)nc3c(c12)CC(=O)N3C12CC3CC(CC(C3)C1)C2 (centres undefined) | -0.93% (inactive)
20 | COc1cnc(-c2ccccn2)nc1Oc1cccc(Cl)c1 | -1.35% (inactive)
21 | Cc1ccc(-n2nc(C(=O)O)cc2-c2ccc(Cl)cc2)cc1 | 1.91% (inactive)
22 | Oc1ccc(/C=N/Nc2cc(N3CCOCC3)nc(N3CCOCC3)n2)c(O)c1 | 0.87% (inactive)

Row | SMILES | inhibition
23 | COc1ccc(C(=O)c2nccc3cc(OC)c(OC)cc23)cc1OC | 1.93% (inactive)
24 | Nc1nc(-c2ccccn2)nc(N)c1Cc1ccc(Cl)cc1Cl | -1.92% (inactive)
25 | COc1ccc(Cl)cc1C(=O)Nc1cccc(-c2ccc3nncn3n2)c1 | -1.12% (inactive)
26 | O=C(NC1(O)C(=O)c2ccccc2C1=O)c1c(Cl)cccc1Cl | -1.34% (inactive)
27 | CN1CCN(C(c2ccccn2)c2cc(Cl)c3cccnc3c2O)CC1 (centres undefined) | -2.91% (inactive)
28 | c1ccc(Nc2nc(-c3ccccn3)cs2)cc1 | -1.08% (inactive)
29 | COc1cnc(-c2ccccn2)nc1Sc1ccc(F)cc1 | -3.12% (inactive)
30 | CCOC(=O)c1cnc(-n2nc(C)cc2C)nc1NC1CCCCC1 | 1.15% (inactive)
31 | CCOC(=O)c1nn(-c2ccc(C)cc2)c(=O)c2c(N)scc12 | 0.85% (inactive)
32 | COc1cnc(-c2ccccn2)nc1Oc1cccc(C(F)(F)F)c1 | -2.17% (inactive)
33 | COc1ccc(Cn2c(N)c(C(=O)NCc3ccco3)c3nc4ccccc4nc32)cc1OC | 0.41% (inactive)
34 | COc1ccccc1Sc1nc(-c2ccccn2)ncc1OC | -2.42% (inactive)
35 | COc1cnc(-c2ccccn2)nc1Sc1ccccc1 | -1.46% (inactive)
36 | CCCCN(CC)c1nc(N)c2c(N)nc(OCC)cc2c1C#N | 2.68% (inactive)
37 | O=c1[nH]c(Nc2ccccc2)cc2ccccc12 | 0.47% (inactive)
38 | O=C(NC1(O)C(=O)c2ccccc2C1=O)c1ccc(C(F)(F)F)cc1 | -0.52% (inactive)
39 | CC(C)(CS(=O)(=O)[O-])NC(=O)CC[N+](C)(C)CCO | 2.71% (inactive)
40 | CCOc1ccc(NC(=S)Nc2ccc3nsnc3c2)cc1 | -0.34% (inactive)
41 | CCOC(=O)c1cnc(-n2nc(C)cc2C)nc1NCc1ccccc1 | 3.11% (inactive)
42 | O=C(NC1(O)C(=O)c2ccccc2C1=O)c1ccccc1 | 1.84% (inactive)
43 | COc1cc(Br)c(C(=O)c2nccc3cc(OC)c(OC)cc23)cc1OC | 1.9% (inactive)
44 | CCCN(CC1CC1)c1nc(N)c2c(N)nc(OC)cc2c1C#N | 0.96% (inactive)

Row | SMILES | inhibition
45 | CCOC(=O)c1sc(N2C(=O)C(O)=C(C(=O)c3ccco3)C2c2cccc([N+](=O)[O-])c2)nc1C (centres undefined) | 9.04% (inactive)
46 | O=C(O)c1n[nH]nc1-c1ccccc1 | 31.1%
47 | Cc1ccc(C(=O)NC2(O)C(=O)c3ccccc3C2=O)cc1C | 2.14% (inactive)
48 | O=C1CCCC2=C1C1(O)C(=O)c3ccccc3C1(O)O2 (centres undefined) | 4.95% (inactive)
49 | COc1ccc(OCCCC(=O)Nc2nc(-c3ccccn3)cs2)cc1 | -1.62% (inactive)
50 | CCOC(=O)c1cnc(-n2nc(C)cc2C)nc1NCCc1ccccc1 | 0.06% (inactive)
51 | c1ccc(-c2nccc(-c3ccc(-n4cnc5ccccc54)cc3)n2)nc1 | 9.23% (inactive)
52 | COc1cnc(-c2ccccn2)nc1Sc1ccccc1Cl | 0.33% (inactive)
53 | O=S(=O)(Cc1cc(NCc2ccccc2)nc(-c2ccccn2)n1)c1ccccc1 | 8.88% (inactive)
54 | CCOC(=O)c1cnc(-n2nc(C)cc2C)nc1NC(C)c1ccccc1 (centres undefined) | 0.17% (inactive)
55 | Clc1ccc(-n2nnnc2-c2cnc(-c3ccccn3)nc2-c2cccs2)cc1 | -0.04% (inactive)
56 | CCOC(=O)c1sc2nc3c(SCC(=O)O)cc(C(=O)c4cc(F)ccc4O)cn3c(=O)c2c1C | 14.5% (inactive)
57 | COc1ccc(NC(=S)Nc2ccc3nsnc3c2)cc1 | -2.27% (inactive)
58 | O=C(O)c1cc(-c2ccc(Cl)c(Cl)c2)n(-c2ccc(F)cc2)n1 | -0.91% (inactive)
59 | COc1cnc(-c2ccccn2)nc1Sc1ccc(Cl)cc1 | -3.05% (inactive)
60 | N#Cc1c(-c2ccc(Cl)cc2)cc(-c2cccs2)nc1SCC(=O)O | 12.1% (inactive)
61 | Oc1ccccc1/C=N/Nc1cc(N2CCCC2)nc(N2CCCC2)n1 | 3.34% (inactive)
62 | O=C(O)c1cc(-c2ccc(Cl)c(Cl)c2)n(-c2ccccc2)n1 | 0.56% (inactive)
63 | COc1cnc(-c2ccccn2)nc1Sc1cccc(Cl)c1 | -0.66% (inactive)
64 | COc1ccc(CN2C(=O)Cc3c2nc(N)c2c(N)nc(N4CCCCC4)c(C#N)c32)cc1 | -2.57% (inactive)
